Source: patent publication US6890889B1, “Mesotrione formulations” (priority 2000, dated 2005)

Test system: weed
Test: Experiments varying water quality and application volumes
Type: in vivo
Details: applied at recommended rates with these adjuvant systems
From the text: Mesotrione, (2-[4-methylsulfonyl-2-nitrobenzoyl]-1,3-cyclohexane dione), is a new broadleaf weed herbicide being developed for post emergence and preemergence use in corn. Adjuvants are highly preferred in order to optimise its post emergence activity. Glasshouse and field experiments have been conducted to evaluate weed and crop response to mesotrione applied post emergence with several adjuvant systems. Rates of mesotrione ranged from 50 to 140 g active ingredient (ai) per […]. Adjuvant systems tested include; • (i) no adjuvant (control), • (ii) crop oil concentrate (COC), • (iii) non-ionic surfactant (NIS), and • (iv) methylated seed oil (MSO), each with and without urea ammonium nitrate (UAN and ammonium sulphate (AMS) fertilizers.
The use of methylated seed oil with mesotrione increases the potential for crop injury.

For `CS(=O)(=O)c1ccc(C(=O)C2C(=O)CCCC2=O)c([N+](=O)[O-])c1` [mesotrione, 2-[4-methylsulfonyl-2-nitrobenzoyl]-1,3-cyclohexane dione], the “impact of varying water quality and application volumes on activity” value was “little or no impact”.
